From PMC10619443, “Structural snapshots of Mycobacterium tuberculosis enolase reveal dual mode of 2PG binding and its implication in enzyme catalysis” (IUCrJ, 2023)

Target: T1, MtEno (Mycobacterium tuberculosis, UniProt P9WNL1)
T1 construct: gene eno
T1 sequence (P9WNL1 whole entry): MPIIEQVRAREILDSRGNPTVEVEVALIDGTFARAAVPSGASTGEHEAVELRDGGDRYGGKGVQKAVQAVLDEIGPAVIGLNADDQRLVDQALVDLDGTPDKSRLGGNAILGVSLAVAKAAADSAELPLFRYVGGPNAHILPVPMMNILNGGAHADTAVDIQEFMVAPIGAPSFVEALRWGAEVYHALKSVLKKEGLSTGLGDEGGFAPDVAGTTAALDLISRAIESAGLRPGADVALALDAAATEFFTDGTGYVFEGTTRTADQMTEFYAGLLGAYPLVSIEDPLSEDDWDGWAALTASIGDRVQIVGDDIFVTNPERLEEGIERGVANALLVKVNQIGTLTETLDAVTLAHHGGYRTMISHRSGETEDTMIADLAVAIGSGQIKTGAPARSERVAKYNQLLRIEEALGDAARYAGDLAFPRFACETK

O=C(O)[C@@H](CO)OP(=O)(O)O [2PG, 2-phosphoglycerate]
X-ray crystal structure: Of the two structures of MtEno-2PG, one harbored the 2PG-canonical pose
